# pEC50, pIC50: −log10 of the molar value.
# Assays:
# HSP90a protein = target: T1, HSP90a protein (Homo sapiens, UniProt P07900); assay: HSP90α-binding fluorescent polarization (FP) assay, BODIPY-labeled RNK04010 probe; settings: FP competition with RNK04010 (BODIPY-labeled), 5 nM, 300 min at 25° C.
# T1 construct: purchased BPS Bioscience 50298
# Summary of the method: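 Competitive FP with N-terminal HSP90a; probe at 5 nM final, either BODIPY-labeled triazolone RNK04010 or FITC-geldanamycin. Test compounds as 2.5-fold dilutions from 20 μM to 5.2 nM. Incubated at 25 °C for 300 min (RNK04010) or 120 min (FITC-geldanamycin) before reading polarization.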
# [1] = system: MIA PaCa-2 human pancreatic carcinoma; assay: MIA PaCa-2 CCK-8 proliferation assay; type: cell-based; settings: Homo sapiens, MIA PaCa-2, 72 h, MIA PaCa-2 cells
# Summary of the method: (§1)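 Proliferation of mutant-KRAS(G12C) cells (2 copies in MIA PaCa-2, single copy in NCI-H358/NCI-H23) measured with CCK-8 after treatment across 20 μM–1.02 nM; inhibition expressed relative to vehicle-treated wells after subtracting no-cell background.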
# [2] = system: NCI-H23 human non-small cell lung cancer; assay: NCI-H23 CCK-8 proliferation assay; type: cell-based; settings: NCI-H23 cells, 72 hr
# Summary of the method: as §1
# [3] = system: NCI-H358 human non-small cell lung cancer; assay: NCI-H358 CCK-8 proliferation assay; type: cell-based; settings: NCI-H358 cells, 72 hr
# Summary of the method: as §1
# KRAS(G12C) [4] = target: T2, KRAS(G12C) (Homo sapiens, UniProt P01116, G12C); assay: KRAS(G12C)/SOS1 homogeneous time-resolved fluorescence (HTRF) assay; parameters: purchased Cisbio 63ADK000CB16PEG; settings: absence of GTP, 4° C. for 3 hr, read-out: KRAS (G12C) binding
# Summary of the method: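 HTRF kit measuring compound-induced block of KRAS(G12C)-SOS1 interaction without GTP. Compounds tested as 3-fold serial dilutions down to 1.02 nM, incubated with reaction components 3 h at 4 °C in sealed plates before fluorescence read.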
# KRAS(G12C) [5] = target: T2, KRAS(G12C); assay: KRAS(G12C) Western blot protein degradation assay in MIA PaCa-2 cells; type: cell-based; parameters: host or cells: LU65A; settings: 48 hr
# Experimental: The following cancer cell lines were employed: BT-474 human breast carcinoma (ATCC, #HTB-20); MIA PaCa-2 human pancreatic carcinoma [2 copies KRAS(G12C)](ATCC, #CRL-1420); NCI-H23 human non-small cell lung cancer [1 copy KRAS(G12C)](ATCC, #CRL-5800); NCI-H358 human non-small cell lung cancer [1 copy KRAS(G12C)](ATCC, #CRL-5807); LU65A human lung carcinoma (Pharmaron, Beijing, China). Cell lines were cultured essentially according to ATCC and Pharmaron recommendations.
# KRAS(G12C) Western Blot Protein Degradation Assay
# The MIA PaCa-2 human pancreatic carcinoma cell line and LU65A human lung cancer cell line, which expresses KRAS(G12C), were seeded in 6- or 12-well tissue culture plates, and after 1 hr, test compounds were added at various concentrations and incubated at 37° C./5% CO2 for 48 hr (MIA Paca-2) and 6 hr (LU65A) respectively. Cells were then washed with cold PBS, aspirated and cold RIPA buffer containing a protease/phosphatase inhibitor cocktail was added to lyse cells. After centrifugation, the total protein concentrations of cell lysates were determined using the BCA protein assay. Samples were normalized for equivalent protein concentrations, 5×SDS-PAGE loading buffer added and denatured at 100° C. for 10 min. 20 μl of each sample/well was loaded on a SDS-PAGE gel and electrophoresed for 20 min at 80 V, then 120 V for 1.5 hr. Gels were then electroblotted to nitrocellulose membranes using a wet-transfer method at 250 mA for 2.5 hr. Membranes were incubated with blocking buffer for 1 hr and washed 3 times with TBST for 5 min. Membranes were then incubated with anti-KRAS (Sigma-Aldrich, #SAB1404011) and anti-β-Actin monoclonal antibodies (Cell Signaling Technology, #3700) diluted in blocking buffer at 4° C. overnight per the manufacturer's recommendations. After washing 3 times, blots were incubated with appropriately labeled secondary antibodies for 1 hr at room temperature and washed again. Fluorescence imaging and quantitation was performed using a LI-COR Odyssey. Results was analyzed using GraphPad Prism 7 software. Compound degradation of was determined by the following equation and DC50 values (the concentration at which 50% of the maximal degradation of KRAS occurs) calculated using GraphPad Prism 7 software:
# % Inhibition=100−(D−B)/(S−B)*100%. • S: Fluorescence intensity of cells with antibody • D: Fluorescence intensity of compound-treated cells with antibody • B: Fluorescence intensity of cells without antibody
# T2 sequence (P01116 1-188 isoform P01116-2 G12C): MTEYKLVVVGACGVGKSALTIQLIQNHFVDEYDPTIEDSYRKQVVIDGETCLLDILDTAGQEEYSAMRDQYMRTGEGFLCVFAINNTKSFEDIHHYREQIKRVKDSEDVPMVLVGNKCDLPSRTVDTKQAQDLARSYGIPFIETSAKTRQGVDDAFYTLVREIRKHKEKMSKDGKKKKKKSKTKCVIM
pIC50 (HSP90a protein),pEC50 [1],pEC50 [2],pEC50 [3],pIC50 (KRAS(G12C) [4]),inhibition at 0.1562 µM (KRAS(G12C) [5]; 156.2 nM),inhibition at 0.3125 µM (KRAS(G12C) [5]; 312.5 nM),inhibition at 0.625 µM (KRAS(G12C) [5]; 625 nM),inhibition at 1.25 µM (KRAS(G12C) [5]; 1250 nM),inhibition at 2.5 µM (KRAS(G12C) [5]; 2500 nM),inhibition at 5 µM (KRAS(G12C) [5]; 5000 nM),"inhibition at 10 µM (KRAS(G12C) [5]; 10,000 nM)",Compound
6.00 to 7.00,6.00 to 7.00,< 6.00,6.00 to 7.00,< 6.00,,,,,,,,"C=CC(=O)N1CCN(c2nc(NCCC(=O)NCCc3ccc(CN4CCC(Cc5ccc(-n6c(C(=O)NCC(F)(F)F)nnc6-c6cc(C(C)C)c(O)cc6O)cc5)CC4)cc3)nc3c2CCN(c2cc(O)cc4ccccc24)C3)CC1 [Compound 24, 4-(4-((1-(4-(2-(3-((4-(4-acryloylpiperazin-1-yl)-7-(3-hydroxynaphthalen-1-yl)-5,6,7,8-tetrahydropyrido[3,4-d]pyrimidin-2-yl)amino)propanamido)ethyl)benzyl)piperidin-4-yl)methyl)phenyl)-5-(2,4-dihydroxy-5-isopropylphenyl)-N-(2,2,2-trifluoroethyl)-4H-1,2,4-triazole-3-carboxamide, trifluoroacetic acid]"
> 7.00,< 6.00,< 6.00,6.00 to 7.00,< 6.00,,,,,,,,"C=CC(=O)N1CCN(c2nc(NCCC(=O)N3CCC(CN4CCN(Cc5ccc(-n6c(O)nnc6-c6cc(C(C)C)c(O)cc6O)cc5)CC4)CC3)nc3c2CCN(c2cc(O)cc4ccccc24)C3)CC1 [Compound 14, 1-(4-(2-((3-(4-((4-(4-(3-(2,4-dihydroxy-5-isopropylphenyl)-5-hydroxy-4H-1,2,4-triazol-4-yl)benzyl)piperazin-1-yl)methyl)piperidin-1-yl)-3-oxopropyl)amino)-7-(3-hydroxynaphthalen-1-yl)-5,6,7,8-tetrahydropyrido[3,4-d]pyrimidin-4-yl)piperazin-1-yl)prop-2-en-1-one, trifluoroacetic acid]"
6.00 to 7.00,,6.00 to 7.00,6.00 to 7.00,< 6.00,,,,,,,,"C=CC(=O)N1CCN(c2nc(NCCC(=O)NCc3ccc(CN4CCC(Cc5ccc(-n6c(C(=O)NCC(F)(F)F)nnc6-c6cc(C(C)C)c(O)cc6O)cc5)CC4)cc3)nc3c2CCN(c2cccc4ccccc24)C3)C[C@H]1CC#N [Compound 95, (R)-4-(4-((1-(4-((3-((4-(4-acryloyl-3-(cyanomethyl)piperazin-1-yl)-7-(naphthalen-1-yl)-5,6,7,8-tetrahydropyrido[3,4-d]pyrimidin-2-yl)amino)propanamido)methyl)benzyl)piperidin-4-yl)methyl)phenyl)-5-(2,4-dihydroxy-5-isopropylphenyl)-N-(2,2,2-trifluoroethyl)-4H-1,2,4-triazole-3-carboxamide, trifluoroacetic acid]"
6.00 to 7.00,,6.00 to 7.00,6.00 to 7.00,< 6.00,,,,,,,,"CCC(=O)N1CCN(c2nc(NCCC(=O)NCc3ccc(CN4CCC(Cc5ccc(-n6c(C(=O)NCC(F)(F)F)nnc6-c6cc(C(C)C)c(O)cc6O)cc5)CC4)cc3)nc3c2CCN(c2cc(O)cc4ccccc24)C3)CC1 [Compound 62, 5-(2,4-dihydroxy-5-isopropylphenyl)-4-(4-((1-(4-((3-((7-(3-hydroxynaphthalen-1-yl)-4-(4-propionylpiperazin-1-yl)-5,6,7,8-tetrahydropyrido[3,4-d]pyrimidin-2-yl)amino)propanamido)methyl)benzyl)piperidin-4-yl)methyl)phenyl)-N-(2,2,2-trifluoroethyl)-4H-1,2,4-triazole-3-carboxamide, trifluoroacetic acid]"
< 6.00,> 7.00,6.00 to 7.00,6.00 to 7.00,< 6.00,< 33%,< 33%,< 33%,< 33%,< 33%,< 33%,< 33%,"C=CC(=O)N1CCN(c2nc(NCCC(=O)N3CCC(Cc4ccc(CN(C)Cc5ccc(-n6c(C(=O)NCC(F)(F)F)nnc6-c6cc(C(C)C)c(O)cc6O)cc5)cc4)CC3)nc3c2CCN(c2cc(O)cc4ccccc24)C3)CC1 [Compound 16, 4-(4-(((4-((1-(3-((4-(4-acryloylpiperazin-1-yl)-7-(3-hydroxynaphthalen-1-yl)-5,6,7,8-tetrahydropyrido[3,4-d]pyrimidin-2-yl)amino)propanoyl)piperidin-4-yl)methyl)benzyl)(methyl)amino)methyl)phenyl)-5-(2,4-dihydroxy-5-isopropylphenyl)-N-(2,2,2-trifluoroethyl)-4H-1,2,4-triazole-3-carboxamide, trifluoroacetic acid]"
6.00 to 7.00,,6.00 to 7.00,6.00 to 7.00,< 6.00,,,,,,,,"CCC(=O)N1CCN(c2nc(NCCC(=O)N3CCC(CN4CCN(Cc5ccc(-n6c(C(=O)NC(C)C)nnc6-c6cc(CC)c(O)cc6O)cc5)CC4)CC3)nc3c2CCN(c2cc(O)cc4ccccc24)C3)CC1 [Compound 64, 5-(5-ethyl-2,4-dihydroxyphenyl)-4-(4-((4-((1-(3-((7-(3-hydroxynaphthalen-1-yl)-4-(4-propionylpiperazin-1-yl)-5,6,7,8-tetrahydropyrido[3,4-d]pyrimidin-2-yl)amino)propanoyl)piperidin-4-yl)methyl)piperazin-1-yl)methyl)phenyl)-N-isopropyl-4H-1,2,4-triazole-3-carboxamide, trifluoroacetic acid]"
6.00 to 7.00,,6.00 to 7.00,6.00 to 7.00,< 6.00,,,,,,,,"C=CC(=O)N1CCN(c2nc(NCCC(=O)N3CCC(CN4CCN(Cc5ccc(-n6c(C(=O)NCC(F)(F)F)nnc6-c6cc(CC)c(O)cc6O)cc5)CC4)CC3)nc3c2CCN(c2cc(O)cc4ccccc24)C3)CC1 [Compound 17, 4-(4-((4-((1-(3-((4-(4-acryloylpiperazin-1-yl)-7-(3-hydroxynaphthalen-1-yl)-5,6,7,8-tetrahydropyrido[3,4-d]pyrimidin-2-yl)amino)propanoyl)piperidin-4-yl)methyl)piperazin-1-yl)methyl)phenyl)-5-(5-ethyl-2,4-dihydroxyphenyl)-N-(2,2,2-trifluoroethyl)-4H-1,2,4-triazole-3-carboxamide, trifluoroacetic acid]"
6.00 to 7.00,> 7.00,6.00 to 7.00,6.00 to 7.00,< 6.00,,,,,,,,"CC(=O)N1CCN(c2nc(NCCC(=O)NCc3ccc(CN4CCC(Cc5ccc(-n6c(C(=O)NCC(F)(F)F)nnc6-c6cc(C(C)C)c(O)cc6O)cc5)CC4)cc3)nc3c2CCN(c2cc(O)cc4ccccc24)C3)CC1 [Compound 54, 4-(4-((1-(4-((3-((4-(4-acetylpiperazin-1-yl)-7-(3-hydroxynaphthalen-1-yl)-5,6,7,8-tetrahydropyrido[3,4-d]pyrimidin-2-yl)amino)propanamido)methyl)benzyl)piperidin-4-yl)methyl)phenyl)-5-(2,4-dihydroxy-5-isopropylphenyl)-N-(2,2,2-trifluoroethyl)-4H-1,2,4-triazole-3-carboxamide, trifluoroacetic acid]"
